Tests used:
[1] = D-DHA content of neural retina and RPE on 0.25% D-DHA diet by mass spectrometry; assay type: in vivo, C57BL/6J mice; conditions: for % D-substitution: 4 weeks diet + IVT injection + 1 week
Excerpt: To determine the pharmacokinetics of ocular D-DHA uptake, incorporation and elimination from the neural retina and RPE/choroid/sclera, twelve-week-old C57BL/6J mice were fed a 0.5% D-DHA containing diet (0.5 g D-DHA/100 g food, Table 3) for 77 days followed by an additional 73-day wash-out phase with DHA. At 4 weeks, >55% of the DHA in the retina was D-DHA rising to >60% at 5 weeks (FIG. 6A). At similar time points, D-DHA in the RPE/choroid/sclera was >80%. […] Based on the accretion and elimination data, two-month-old mice were fed with diets containing either D-DHA or natural DHA control for 1 week, 2 weeks, 3 weeks, and 4 weeks before the IVT injection of iron and saline control (FIG. 6B). In order to better approximate typical DHA doses in human prescription omega-3 supplements (e.g. 1,500 mg/day DHA in Lovaza), the D-DHA and DHA experimental mouse diets were adjusted to 0.25% instead of 0.5% for most of the study. On a 0.25% D-DHA diet, retinal D-DHA levels exceeded 50% at five weeks (52.2±1.5% and 55% of total DHA by our GC- and LC- based MS methods, respectively), regardless of whether eyes were injected with iron or control saline (Table 3).
The extent to which D-DHA replaced natural DHA was determined by LC/MS by feeding an experimental diet containing 0.25% D-DHA for increasing periods of time. Microdissected samples of neural retina and RPE from mice fed the experimental diet for 4 weeks were analyzed after given IVT iron or control saline, and then continued on the experimental diet for another week. It was confirmed that 22.6% of DHA in the control diet consisted of isotopomers due to natural abundance ^13C and no D-DHA. Therefore, signals from the 327.2/283.2 transition represent 78.4% of the total DHA. The experimental diet contained no detectable natural DHA, but rather a distribution of deuterium-substituted DHA isotopologues (FIGS. 11A-C), which is a consequence of the D-DHA preparation method. After corrections were applied for natural abundance ^13C, it was determined that the D10-DHA isotopologue comprised 45.6% of the D-DHA species in the analyzed sample, with Ds-DHA, D9-DHA, D11-DHA, and D12-DHA isotopologues comprising the balance. Therefore, signals from the 337.2/293.2 transition represented 45.6% of the D-DHA. With these corrections applied, D-DHA isotopologues as a percentage of total DHA (i.e., D-DHA + DHA) was determined to be 59.3-60.8 % in isolated RPE, and 55.0 % in neural retina.
Adult male wild-type C57BL/6J mice (Stock No.000664, Jackson Labs, Bar Harbor, ME, USA) were housed in standard conditions under cyclic light (12 h:12 h light-dark cycle). Mice had ad libitum access to water and food. Beginning at 2 mo of age, mice were placed on the AIN93G diet described above, supplemented with 0.25% D-DHA or DHA (control diet) for 1 week, 2 weeks, 3 weeks, or 4 weeks prior to the intravitreal injection. Mice were given an intravitreal injection of 1 µl 0.5 mM ferric ammonium citrate diluted in 0.9% NaCl (saline) (MP Biomedicals LLC, Santa Ana, CA) or
Three types of mass spectrometric analysis were performed to confirm repeatability of results. In the first, lipids were extracted from retinas by a modified Folch method (CHCl3/CH3OH, 2:1). derivatized to fatty acid methyl esters (FAME), and analyzed by high resolution capillary gas chromatography and specialized chemical ionization tandem mass spectrometry. Baseline resolved DHA and D-DHA total ion signal were integrated, and the proportions of D-DHA/total DHA were calculated. The second type of mass spectrometric analysis was performed on samples of the control and experimental diets, as well as microdissected neural retina and RPE from animals on the experimental diet. Lipids were extracted and saponified, and analyzed by ESI-LC/MS on a 4000 QTrap (Sciex) operating in enhanced negative mode over an m/z range of 320 - 345 and a scan rate of 250 /sec. […]

[2] = test system: carboxyethyl pyrrole (CEP); assay: Immunolabelling for CEP on cryosections; assay type: in vivo, C57BL/6J mice; conditions: 1 week after injection, 4 weeks diet
Method: Iron-catalyzed peroxidation of phospholipids containing DHA leads to unique carboxyethyl pyrrole (CEP) adducts not formed from any other PUFA. CEP has been detected by IHC in human AMD eyes and mouse retinas, including those from mice receiving IVT iron. To test whether D-DHA could protect against iron-induced CEP formation, mice were fed with D-DHA or DHA for 4 weeks prior to IVT injection of iron or control saline.
Cryosections were prepared at 4h and 1 week after injections. Co-labelling for CEP and rhodopsin was conducted to assess and localize CEP. […] At 1 week after injection, immunolabelling for CEP localized to RPE and infiltrating myeloid cells in IVT iron injected eyes of DHA fed mice, likely originationg from phagocytosed oxidized photoreceptor outer segments (FIG. 8B). Immunolabelling for CEP was undetected in D-DHA fed mice. […] Quantification of pixel density for CEP and L-Ft label was conducted using ImageJ software (FIGS. 8F and 8G), and quantitatively verified the results described above.
Immunofluorescence on cryosections was conducted as described previously. […] Images were acquired with an epifluorescence microscope (Nikon 80i microscope, Nikon, Tokyo, Japan), and analyzed using NIS-Elements (Nikon).

retinal D-DHA levels (% of total DHA) ([1]; 0.25% D-DHA diet, five weeks (4+1), neural retina, LC-based MS method): 55%
retinal D-DHA levels (% of total DHA) ([1]; 0.25% D-DHA diet, five weeks, GC-based MS method): 52.2±1.5%
retinal D-DHA levels ([1]; 0.25% D-DHA diet, five weeks, iron or saline injected eyes): exceeded 50%
% D-substitution ([1]; RPE cells, D-DHA + Fe): 59.3 ± 3.9%
% D-substitution ([1]; RPE cells, D-DHA + saline): 60.8 ± 2.1%
D-DHA isotopologues as a percentage of total DHA ([1]; isolated RPE, 0.25% diet, 4+1 weeks, LC/MS): 59.3-60.8%
substitution of DHA with D-DHA in the neural retina ([1]; mice fed with D-DHA for 4 weeks): > 50%
% D-substitution ([1]; neural retina, D-DHA + Fe): 55.0 ± 3.3%
% D-substitution ([1]; neural retina, D-DHA + saline): 55.0 ± 1.8%
Structure (SMILES): [2H]C([2H])(/C=C\CC)/C=C\C([2H])([2H])/C=C\C([2H])([2H])/C=C\C([2H])([2H])/C=C\C([2H])([2H])/C=C\CCC(=O)OCC [D-DHA, 6,6,9,9,12,12,15,15,18,18-D10-(4Z,7Z,10Z,13Z,16Z, 19Z)-docosa 4,7,10,13,16, 19-hexaenoic acid ethyl ester]
immunolabelling for CEP [2]: undetected

— patent US20230333087A1, “METHODS FOR MONITORING PATIENT RESPONSE TO TREATMENT OF RETINAL OXIDATIVE DISEASES” (BioJiva LLC, priority 2022, published 2023)
